Among the data in ChEMBL document CHEMBL3407382, “Syntheses of chondroitin sulfate tetrasaccharide structures containing 4,6-disulfate patterns and analysis of their interaction with glycosaminoglycan-binding protein” (Bioorg Med Chem Lett, 2015) are Kd values, retold here.

In one assay the target is Fibroblast growth factor 2 (Homo sapiens, UniProt P09038). Kind of assay: Binding affinity to FGF2 (unknown origin) assessed as change in luminance intensity at 25 degC by SPR imaging sensor method.
Fibroblast growth factor 2, sequence (P09038 143-288 limits assumed): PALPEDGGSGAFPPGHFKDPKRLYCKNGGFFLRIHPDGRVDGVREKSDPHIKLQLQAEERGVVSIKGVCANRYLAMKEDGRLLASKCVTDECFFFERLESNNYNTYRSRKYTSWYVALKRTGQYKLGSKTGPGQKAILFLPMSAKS
Conditions: not given; call rule not given here
A general note: In SPR one partner is held on a chip, and binding of the other changes the refractive index at the surface.
`CC(=O)N[C@H]1[C@H](O[C@H]2[C@H](O)[C@@H](OS(=O)(=O)O)[C@H](O[C@H]3[C@@H](O)[C@@H](COS(=O)(=O)O)O[C@@H](OC[C@@H](O)[C@@H](O)[C@H](O)[C@@H](O)CNc4cccc(NC(=O)CCCCC5CCSS5)c4)[C@@H]3NC(C)=O)O[C@@H]2C(=O)O)O[C@H](COS(=O)(=O)O)[C@H](O)[C@@H]1O[C@@H]1O[C@H](C(=O)O)[C@@H](O)[C@H](O)[C@H]1O` (stereo partly drawn): the Kd (commonly the concentration at which binding is half-saturated) was “Not Active”.

Turning to `CC(=O)N[C@H]1[C@H](OC[C@@H](O)[C@@H](O)[C@H](O)[C@@H](O)CNc2cccc(NC(=O)CCCCC3CCSS3)c2)O[C@H](COS(=O)(=O)[O-])[C@H](OS(=O)(=O)[O-])[C@@H]1O[C@@H]1O[C@H](C(=O)O)[C@@H](O[C@@H]2O[C@H](COS(=O)(=O)[O-])[C@H](O)[C@H](O[C@@H]3O[C@H](C(=O)O)[C@@H](O)[C@H](O)[C@H]3O)[C@H]2NC(C)=O)[C@H](O)[C@H]1O.[Na+].[Na+].[Na+]` (stereo partly drawn), the Kd entry was “Not Active”.

Still in this assay, the particulars now being: read-out: Kd.
Regarding `CC(=O)N[C@H]1[C@H](O[C@H]2[C@H](O)[C@@H](O)[C@H](O[C@@H]3[C@@H](NC(C)=O)[C@H](OC[C@@H](O)[C@@H](O)[C@H](O)[C@@H](O)CNc4cccc(NC(=O)CCCCC5CCSS5)c4)O[C@H](CO)[C@@H]3OS(=O)(=O)O)O[C@@H]2C(=O)O)O[C@H](COS(=O)(=O)O)[C@H](OS(=O)(=O)O)[C@@H]1O[C@@H]1O[C@H](C(=O)O)[C@@H](O)[C@H](O)[C@H]1O` (stereo partly drawn), the Kd amounted to 5.6 nM. Take `CC(=O)N[C@H]1[C@H](O[C@H]2[C@H](O)[C@@H](O)[C@H](O[C@H]3[C@@H](O)[C@@H](COS(=O)(=O)O)O[C@@H](OC[C@@H](O)[C@@H](O)[C@H](O)[C@@H](O)CNc4cccc(NC(=O)CCCCC5CCSS5)c4)[C@@H]3NC(C)=O)O[C@@H]2C(=O)O)O[C@H](COS(=O)(=O)O)[C@H](OS(=O)(=O)O)[C@@H]1O[C@@H]1O[C@H](C(=O)O)[C@@H](O)[C@H](O)[C@H]1O` (stereo partly drawn): the Kd was 8.2 nM. Take `CC(=O)N[C@H]1[C@H](OCC(O)C(O)C(O)C(O)CNc2cccc(NC(=O)CCCCC3CCSS3)c2)O[C@H](COS(=O)(=O)O)[C@H](OS(=O)(=O)O)[C@@H]1O[C@@H]1O[C@H](C(=O)O)[C@@H](O[C@@H]2O[C@H](COS(=O)(=O)O)[C@H](O)[C@H](O[C@@H]3O[C@H](C(=O)O)[C@@H](O)[C@H](O)[C@H]3OS(=O)(=O)O)[C@H]2NC(C)=O)[C@H](O)[C@H]1OS(=O)(=O)O` (stereo partly drawn): the Kd is 16 nM.

In the case of `CC(=O)N[C@H]1[C@H](OC[C@@H](O)[C@@H](O)[C@H](O)[C@@H](O)CNc2cccc(NC(=O)CCCCC3CCSS3)c2)O[C@H](COS(=O)(=O)O)[C@H](O)[C@@H]1O[C@@H]1O[C@H](C(=O)O)[C@@H](O[C@@H]2O[C@H](COS(=O)(=O)O)[C@H](O)[C@H](O[C@@H]3O[C@H](C(=O)O)[C@@H](O)[C@H](O)[C@H]3OS(=O)(=O)O)[C@H]2NC(C)=O)[C@H](O)[C@H]1OS(=O)(=O)O` (stereo partly drawn), the Kd came out at 48 nM. The same measure, in the same setting: then `CC(=O)N[C@H]1[C@H](O[C@H]2[C@H](O)[C@@H](O)[C@H](O[C@@H]3[C@@H](NC(C)=O)[C@H](OC[C@@H](O)[C@@H](O)[C@H](O)[C@@H](O)CNc4cccc(NC(=O)CCCCC5CCSS5)c4)O[C@H](COS(=O)(=O)O)[C@@H]3OS(=O)(=O)O)O[C@@H]2C(=O)O)O[C@H](COS(=O)(=O)O)[C@H](OS(=O)(=O)O)[C@@H]1O[C@@H]1O[C@H](C(=O)O)[C@@H](O)[C@H](O)[C@H]1O` (stereo partly drawn), with 5.2 nM; and `CC(=O)N[C@H]1[C@H](O[C@H]2[C@H](O)[C@@H](OS(=O)(=O)O)[C@H](O[C@H]3[C@@H](O)[C@@H](COS(=O)(=O)O)O[C@@H](OC[C@@H](O)[C@@H](O)[C@H](O)[C@@H](O)CNc4cccc(NC(=O)CCCCC5CCSS5)c4)[C@@H]3NC(C)=O)O[C@@H]2C(=O)O)O[C@H](COS(=O)(=O)O)[C@H](OS(=O)(=O)O)[C@@H]1O[C@@H]1O[C@H](C(=O)O)[C@@H](O)[C@H](O)[C@H]1O` (stereo partly drawn), with 4.7 nM.
